Format in all cases: biochemical
Test [1] concerns the target T1, β-secretase (BACE) (Homo sapiens, UniProt P56817).
T1 construct: purchased Panvera
Kind of test: BACE Assay-1 (MCA-substrate, IC50). The conditions noted are these: procedure of Example 158. As for the experimental part: The following standards are reagents were used in this assay: Sodium Citrate trisodium salt dihydrate (Sigma), Citric Acid monohydrate (Merck), PEG8000 (Sigma), MCA-substrate (Bachem), β-secretase (BACE) (Panvera), 96-well plate zwart (Costar (Elscolab)), StatVal (Bachem).
The following standard assay buffer solution was prepared and used in this assay: 0.05 M, pH 5.0 mixture of sodium citrate trisodium salt dihydrate (9.56 g), citric acid monohydrate (3.68 g) and PEG8000 (0.50 g).
The MCA-substrate stock solution was prepared by mixing 10 mg MCA-substrate with 5 mL DMSO for a final solution concentration of 2.0 mg/mL. The substrate work solution was prepared by mixing 0.1 mL substrate in 1.90 mL assay buffer for a final concentration of 0.05 mM. The β-secretase (BACE) work solution was prepared by mixing 8 μL BACE in 2 mL assay buffer for a final concentration of 10 µg/mL.
The screen procedure for this assay was as follows. 60 μL of assay buffer was pippeted into each well of a 96-well plate. To each well was then pipetted 1 μL of test compound at the selected concentration. To each well was then added 20 μL of the β-secretase work solution and […] of the MCA-substrate stock solution.
The procedure for the blank was as follows. 80 μL of assay buffer was pipetted into each well to be used as a blank control. To each well was then added 1 μL of DMSO and 20 μL of MCA-substrate solution in each well.
The procedure for the positive control was as follows. 60 μL of assay buffer was pipetted into each well to be used as a positive control. To each well was then added 1 μL of DMSO, 20 μL of BACE work solution and 20 μL of MCA-substrate stock solution.
For test compounds, measured at multiple concentrations, the measured T0 and T60 values were used to calculate an IC50 value using Graphpad Software (or PIR).

Test [2] addresses T1, β-secretase (BACE). Nature of the test: BACE % Inhibition Assay ((Aedens)-[…]-(Dabcyl K-amide) substrate). Conditions: % error ±10%; for inhibition at 3 µM: 3 μM compound; for inhibition at 10 µM: 10 μM compound. As for the experimental part:
The substrate stock solution was prepared in DMSO as a 10 mg/mL solution. The substrate working solution was prepared by diluting the 10 mg/mL stock solution with substrate assay buffer to a final concentration of […]. The β-secretase (BACE) working solution was prepared by diluting a 0.83 mg/mL BACE stock solution with enzyme assay buffer to a final concentration of 4 μg/mL.
Test compounds were dissolved in DMSO to 10 mM.
The screening procedure for this assay was as follows: 15 μL of BACE working solution was pipetted into each well of a 96-well plate. To each well was then pipetted 2 μL of test compound at the selected concentration. Test compound and BACE were then mixed with a pipettor and incubated for 20 min at room temperature. To each well was then added 10 μL of the substrate working solution. The plates were then incubated for 1 hour at room temperature.
The procedure for the blank was as follows. 15 μL of assay buffer was pipetted into each well to be used as a blank control. To each well was then added 2 μL of vehicle and 10 μL of substrate working solution. The plates were then incubated for 1 hour at room temperature.
The procedure for the positive control was as follows: 15 μl of BACE working solution was pipetted into each well to be used as a positive control. To each well was then pipetted 2 μL of vehicle. Vehicle and BACE were then mixed with a pipettor and incubated for 20 min at room temperature. To each well was then added 10 μL of the substrate working solution. The plates were the incubated for 1 hour at room temperature.
For test compounds, % inhibition was determined at each concentration as follows: […]

Test [3] has as its target T1, β-secretase (BACE). Nature of the test: BACE Assay-2 (FS1 substrate, IC50 and Ki). Conditions: procedure of Example 159, FS1 substrate. As for the experimental part:
The FS1-substrate stock solution was prepared in DMSO as a 10 mg/mL solution. The FS1-substrate working solution was prepared by diluting the 10 mg/mL stock solution with substrate assay buffer to a final concentration of […]. The β-secretase (BACE) working solution was prepared by diluting a 0.83 mg/mL BACE stock solution with enzyme assay buffer to a final concentration of 4 μg/mL.
Test compounds were dissolved in DMSO at 10 mM.
The procedure for this assay was as follows: 15 μL of BACE working solution was pipetted into each well of a 96-well plate. To each well was then pipetted 2 μL of test compound at the selected concentration. Test compound and BACE were then mixed with a pipettor and incubated for 20 min at room temperature. To each well was then added 10 μL of the FS1 substrate working solution.
The procedure for the positive control was as follows:15 μL of BACE working solution was pipetted into each well to be used as a positive control. To each well was then pipetted 2 μL of vehicle. Vehicle and BACE were then mixed with a pipettor and incubated for 20 min at room temperature. To each well was then added 10 μL of the FS1 substrate working solution.
For test compounds, measured at multiple concentrations, the measured T0 and T60 values were used to calculate an IC50 value using Graphpad Software (or PIR). For test compounds, Ki inhibition was determined as follows: For each compound concentration and positive control, rate of cleavage of substrate (Vi, where i=compound concentration in μM) was determined as Δ Fluorescence/Δ time (min). Cleavage rates (Vi) were plotted as a function of inhibitor concentration in μM [I]. The Ki was then determined by fitting the following equation to the graph of [I] vs Vi Y=aVmax/(50+24*(1+X/Ki)),

Test [4] deals with T1, β-secretase (BACE). Nature of the test: BACE FS1 % Inhibition Assay. The conditions noted are these: read-out: % Inhibition (FS); for inhibition at 0.3 µM: 0.3 μM test compound; for inhibition at 1 µM: 1 μM test compound; for inhibition at 3 µM: 3 μM test compound. In short, it runs like this:
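Percent inhibition per compound concentration was referenced to vehicle-treated enzyme and no-enzyme wells. Enzyme at a 4 μg/mL working stock plus compound was mixed for 20 min at room temperature before the FS1 substrate (300 μg/mL working stock) was added for a 1 h room-temperature reaction.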

Values joined by “and” are separate entries in the source; they are usually repeats but may differ in a detail not shown here. Equal values may be shown once.

T1 sequence (P56817 46-501): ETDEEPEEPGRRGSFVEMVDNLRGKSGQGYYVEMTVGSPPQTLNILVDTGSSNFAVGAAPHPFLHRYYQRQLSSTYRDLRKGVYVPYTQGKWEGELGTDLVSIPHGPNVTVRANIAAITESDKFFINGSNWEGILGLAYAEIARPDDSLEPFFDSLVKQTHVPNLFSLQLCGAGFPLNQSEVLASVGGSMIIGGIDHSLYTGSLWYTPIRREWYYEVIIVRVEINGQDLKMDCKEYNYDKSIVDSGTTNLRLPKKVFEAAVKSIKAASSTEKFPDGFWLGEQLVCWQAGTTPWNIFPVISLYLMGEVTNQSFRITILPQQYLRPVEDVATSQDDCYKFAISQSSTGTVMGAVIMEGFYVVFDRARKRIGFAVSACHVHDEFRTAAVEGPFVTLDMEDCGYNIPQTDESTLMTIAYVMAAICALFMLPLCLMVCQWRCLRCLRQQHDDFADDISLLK

In general, IC50 refers to the midpoint of a concentration-inhibition curve. High values mean a need for much substance, low ones inhibition by little substance. In turn, `CN(C(=O)CCCN1Cc2cc(C(=O)c3ccccc3)ccc2N=C1N)C1CCCCC1` [Compound 10] registered a concentration for half-maximal inhibition (IC50) against β-secretase (BACE) [1] of 3.7 µM.
A word on the inhibition: it is the drop in the measured response relative to a control, in per cent. As a reminder, the Ki is the equilibrium dissociation constant of an inhibitor or competing ligand from its target. Higher therefore signals weaker binding. Turning to `CCCN1Cc2cc(Oc3cccc(NC(=O)C4CCCCC4)c3)ccc2N=C1N` [Compound 44], it took 6.1 µM to reach half-maximal inhibition against β-secretase (BACE) [1] (IC50). For the same molecule, at β-secretase (BACE) [2], the inhibition at 3 µM is < 30% and the inhibition at 10 µM is 31%. On β-secretase (BACE) [3], this molecule yielded a Ki of 3.3 µM.
At β-secretase (BACE) [1], `CCCN1Cc2cc(Oc3cccc(N(C#N)CC4CCCCC4)c3)ccc2N=C1N` [Compound 56] returned an IC50 of 0.97 µM. Besides, on β-secretase (BACE) [2], the inhibition at 3 µM was 35% and the inhibition at 10 µM stood at 79%. Further, on β-secretase (BACE) [3], the IC50 amounted to 5.4 µM and the inhibition constant (Ki) amounted to 0.77 µM.
The molecule `CCCC(CCC(=O)N(C)C1CCCCC1)N1Cc2cc(Oc3ccccc3)ccc2N=C1N` (stereo not drawn) [Compound 86] yielded an IC50 at β-secretase (BACE) [1] of 0.048 µM. Moreover, at β-secretase (BACE) [2], the inhibition at 3 µM amounted to 72% and the inhibition at 10 µM is 80%. For the same molecule, the affinity on β-secretase (BACE) [3] corresponds to a Ki of 0.13 µM.
Consider `CN(C(=O)CC(CC(=O)N(C)C1CCCCC1)N1Cc2cc(Oc3ccccc3)ccc2N=C1N)C1CCCCC1` [Compound 107, 3-(2-Amino-6-phenoxy-4H-quinazolin-3-yl)-pentanedioic acid bis-(cyclohexyl-methyl-amide)], for which it took 0.82 µM to reach half-maximal inhibition against β-secretase (BACE) [1] (IC50). For the same molecule, on β-secretase (BACE) [2], the inhibition at 3 µM worked out at 48% and the inhibition at 10 µM is 78%. Further, on β-secretase (BACE) [3], it took 4.58 µM to reach half-maximal inhibition (IC50) and the affinity, expressed as Ki, was 1.2 µM.
At β-secretase (BACE) [1], `NC1=Nc2ccc(Oc3cccc(NS(=O)(=O)c4ccccc4)c3)cc2CN1CCCCC(=O)N(C1CCCCC1)C1CCCCC1` [Compound 113] displayed an IC50 of 0.99 µM.
In turn, `CCCN1Cc2cc(Oc3cccc(CNS(=O)(=O)c4ccccc4)c3)ccc2N=C1N` [Compound 225] yielded an IC50 against β-secretase (BACE) [1] of 2.9 µM.
Molecule `NC1=Nc2ccc(Oc3ccccc3)cc2CN1C(CNC(=O)C1CCCC1)C1CCCCC1` (stereo not drawn) [Compound 295] came in with an IC50 against β-secretase (BACE) [1] of 0.016 µM. Moreover, at β-secretase (BACE) [4], the inhibition at 0.3 µM was 79%, the inhibition at 1 µM stood at 106% and the inhibition at 3 µM came out at 116%. For the same molecule, the Ki at β-secretase (BACE) [3] was 0.03 µM.
On β-secretase (BACE) [1], `CCCN1Cc2cc(Oc3cccc(CNCc4cccc(O)c4)c3)ccc2N=C1N` [Compound 305] yielded an IC50 of 1.4 µM.
On β-secretase (BACE) [1], `CSc1ccccc1-c1ccc2c(c1)CN(Cc1cccc(C(=O)N(C)C3CCCCC3)c1)C(N)=N2` [Compound 322] showed a 50% inhibitory concentration (IC50) of 0.14 µM. Further, on β-secretase (BACE) [4], the inhibition at 0.3 µM was < 30%, the inhibition at 1 µM is < 30% and the inhibition at 3 µM came out at 95%. The Ki at β-secretase (BACE) [3] came out at 0.29 µM.
`CCCN1Cc2cc(Oc3cccc(CNCc4ccccc4OC)c3)ccc2N=C1N` [Compound 335] had an IC50 against β-secretase (BACE) [1] of 0.24 µM.
For `CCCN1Cc2cc(Oc3cccc(CNCc4c(OC)cccc4OC)c3)ccc2N=C1N` [Compound 340], half-maximal inhibition against β-secretase (BACE) [1] (IC50) was put at 2 µM.
Still for that read-out and setting: then `CCCN1Cc2cc(Oc3cccc(CNCc4c(C)cc(C)cc4C)c3)ccc2N=C1N` [Compound 344], with 0.058 µM; and `CCCN1Cc2cc(Oc3cccc(CNCCCc4ccccc4)c3)ccc2N=C1N` [Compound 430], with 2.8 µM.
At β-secretase (BACE) [1], `CCCN1Cc2cc(Oc3cccc(CN(C)Cc4c(C)cc(C)cc4C)c3)ccc2N=C1N` [Compound 464] registered an IC50 of 1.3 µM. Against the preceding molecule, the IC50 is about 2.2-fold lower.
In turn, `NC1=Nc2ccc(Oc3ccccc3)cc2CN1[C@H](CNC(=O)C1CCCCC1)C1CCCCC1` [Compound 484] yielded an IC50 against β-secretase (BACE) [1] of 1.1 µM. At β-secretase (BACE) [4], the inhibition at 0.3 µM was < 30%, the inhibition at 1 µM was < 30% and the inhibition at 3 µM amounted to 62%. This molecule also showed a Ki on β-secretase (BACE) [3] of 0.74 µM.
Molecule `COc1ccccc1-c1ccc2c(c1)CN([C@@H](CCC(=O)N(C)C1CCCCC1)C1CCCCC1)C(N)=N2` [Compound 506] gave an IC50 against β-secretase (BACE) [1] of 0.03 µM. At β-secretase (BACE) [4], the inhibition at 0.3 µM turned out to be 106%, the inhibition at 1 µM was determined as 115% and the inhibition at 3 µM amounted to 128%. The inhibitory constant (Ki) at β-secretase (BACE) [3] was 0.018 µM and 0.0075 µM.
On to `CCCN1Cc2cc(Oc3cccc(CNC(=O)c4c(C)cc(C)cc4C)c3)ccc2N=C1N` [Compound 533], for which the IC50 on β-secretase (BACE) [1] stood at 0.17 µM. In other words, the sub-micromolar range.

(Values after patent publication US8426429B2, “2-amino-quinazoline derivatives useful as inhibitors of β-secretase (BACE)” (Jansssen Pharmaceutica N.V., priority 2004, dated 2013).)
